# Measured values from US20040082589A1, “Quinoline derivatives as nk-3 and nk-2 antagonists” (priority 2000, published 2004).
row,SMILES,melting point
1,"C[C@H](NC(=O)c1c(CN2CCN(C(=O)[C@@H]3C[C@H]3C(=O)O)CC2)c(-c2ccccc2)nc2ccccc12)c1ccccc1 (mixture of isomers) [Example 7, Trans 2-(1-{4-[2-Phenyl-4-((S)-1-phenyl-ethylcarbamoyl)-quinolin-3-ylmethyl]-piperazin-1-yl}-methanoyl)-cyclopropanecarboxylic acid]",135 to 145 °C
2,"C[C@H](NC(=O)c1c(CN2CCN(C(=O)[C@H]3CCCC[C@H]3C(=O)O)CC2)c(-c2ccccc2)nc2ccccc12)c1ccccc1 (mixture of isomers) [Example 8, Cis 2-(1-{4-[2-Phenyl-4-((S)-1-phenyl-ethylcarbamoyl)-quinolin-3-ylmethyl]-piperazin-1-yl}-methanoyl)-cyclohexanecarboxylic acid]",130 to 140 °C
3,"C[C@H](NC(=O)c1c(CN2CCN(C(=O)CC(C)(C)CC(=O)O)CC2)c(-c2ccccc2)nc2ccccc12)c1ccccc1 [Example 6, 3,3-Dimethyl-5-oxo-5-{4-[2-phenyl-4-((S)-1-phenyl-ethylcarbamoyl)-quinolin-3-ylmethyl]-piperazin-1-yl}-pentanoic acid]",213 to 215 °C
4,"C[C@H](NC(=O)c1c(CN2CCN(C(=O)/C=C/C(=O)O)CC2)c(-c2ccccc2)nc2ccccc12)c1ccccc1 [Example 9, (E)-4-Oxo-4-{4-[2-phenyl-4-((S)-1-phenyl-ethylcarbamoyl)-quinolin-3-ylmethyl]-piperazin-1-yl}-but-2-enoic acid]",214 to 215 °C
5,"C[C@H](NC(=O)c1c(CN2CCN(C(=O)c3cccc(C(=O)O)c3)CC2)c(-c2ccccc2)nc2ccccc12)C1CCCCC1 [Example 13, 3-(1-{4-[4-((S)-1-Cyclohexyl-ethylcarbamoyl)-2-phenyl-quinolin-3-ylmethyl]-piperazin-1-yl}-methanoyl)-benzoic acid]",179 to 180 °C
6,"C[C@H](NC(=O)c1c(CN2CCN(C(=O)CCCC(=O)O)CC2)c(-c2ccccc2)nc2ccccc12)C1CCCCC1 [Example 11, 5-{4-[4-((S)-1-Cyclohexyl-ethylcarbamoyl)-2-phenyl-quinolin-3-ylmethyl]-piperazin-1-yl}-5-oxo-pentanoic acid]",125 to 130 °C
7,"C[C@H](NC(=O)c1c(CN2CCN(C(=O)CC(=O)O)CC2)c(-c2ccccc2)nc2ccccc12)C1CCCCC1 [Example 10, 3-{4-[4-((S)-1-Cyclohexyl-ethylcarbamoyl)-2-phenyl-quinolin-3-ylmethyl]-piperazin-1-yl}-3-oxo-propionic acid]",150 to 155 °C
8,"C[C@H](NC(=O)c1c(CN2CCN(C(=O)c3nccnc3C(=O)O)CC2)c(-c2ccccc2)nc2ccccc12)C1CCCCC1 [Example 12, 3-(1-{4-[4-((S)-1-Cyclohexyl-ethylcarbamoyl)-2-phenyl-quinolin-3-ylmethyl]-piperazin-1-yl}-methanoyl)-pyrazine-2-carboxylic acid]",162 to 165 °C
9,"C[C@H](NC(=O)c1c(CN2CCN(C(=O)c3cncc(C(=O)O)c3)CC2)c(-c2ccccc2)nc2ccccc12)C1CCCCC1 [Example 14, 5-(1-{4-[4-((S)-1-Cyclohexyl-ethylcarbamoyl)-2-phenyl-quinolin-3-ylmethyl]-piperazin-1-yl}-methanoyl)-nicotinic acid]",250 to 255 °C (dec.)

# The next lines start with the values.
row,melting point,SMILES
1,164 to 166 °C,"C[C@H](NC(=O)c1c(CN2CCN(C(=O)CCN)CC2)c(-c2ccccc2)nc2ccccc12)C1CCCCC1 [Example 21, 3-[4-(3-Amino-propanoyl)-piperazin-1-ylmethyl]-2-phenyl-quinoline-4-carboxylic acid ((S)-1-cyclohexyl-ethyl)-amide]"
2,185 to 188 °C,"C[C@H](NC(=O)c1c(CN2CCN(C(=O)c3ccc(C(=O)O)cc3)CC2)c(-c2ccccc2)nc2ccccc12)C1CCCCC1 [Example 15, 4-(1-{4-[4-((S)-1-Cyclohexyl-ethylcarbamoyl)-2-phenyl-quinolin-3-ylmethyl]-piperazin-1-yl}-methanoyl)-benzoic acid]"
3,125 °C,"CCNCCC(=O)N1CCN(Cc2c(-c3ccccc3)nc3ccccc3c2C(=O)N[C@@H](C)C2CCCCC2)CC1 [Example 22, 3-[4-(3-Ethylamino-propanoyl)-piperazin-1-ylmethyl]-2-phenyl-quinoline-4-carboxylic acid ((S)-1-cyclohexyl-ethyl)-amide]"
4,120 to 122 °C,"C[C@H](NC(=O)c1c(CN2CCN(C(=O)CCN3CCCCC3)CC2)c(-c2ccccc2)nc2ccccc12)C1CCCCC1 [Example 24, 2-Phenyl-3-[4-(3-piperidin-1-yl-propanoyl)-piperazin-1-ylmethyl]-quinoline-4-carboxylic acid ((S)-1-cyclohexyl-ethyl)-amide]"
5,125 to 129 °C,"CCOC(=O)C(C(=O)N1CCN(Cc2c(-c3ccccc3)nc3ccccc3c2C(=O)N[C@@H](C)C2CCCCC2)CC1)c1ccccc1 (stereo partly drawn) [Example 16, 3-{4-[4-((S)-1-Cyclohexyl-ethylcarbamoyl)-2-phenyl-quinolin-3-ylmethyl]-piperazin-1-yl}-3-oxo-2-phenyl-propionic acid ethyl ester]"
6,116 to 119 °C,"C[C@H](NC(=O)c1c(CN2CCN(C=O)CC2)c(-c2ccccc2)nc2ccccc12)C1CCCCC1 [Example 18, 3-(4-Formyl-piperazin-1-ylmethyl)-2-phenyl-quinoline-4-carboxylic acid ((S)-1-cyclohexyl-ethyl)-amide]"
